Literature values, collected in patent publication US7101912B2, “Carbidopa prodrugs and derivatives, and compositions and uses thereof” (XenoPort, Inc., priority 2002, dated 2006).

Columns and labels:
[1] = rats

conversion of the prodrug to levodopa in rat plasma (following absorption from an intestinal loop) | levels of levodopa (rat plasma following absorption from an intestinal loop) | absorption following rectal administration [1] | SMILES
slow | low | – | CC(C)(C)C(=O)Oc1ccc(C[C@H](N)C(=O)O)cc1O [NB-355]
– | – | poor | C[C@@](Cc1ccc(O)c(O)c1)(NN)C(=O)O [carbidopa]
